Experimental data reported in patent US5543415A, “Antidepressants” (Kyowa Hakko Kogyo Co., Ltd., priority 1992, dated 1996).

Key:
[1] = test system: clonidine-induced aggressive behavior; test: Effect on Clonidine-Induced Aggressive Behavior (number of biting attacks during 30 minutes); format: in vivo, male ddY mice; conditions: po; for Number of the Biting Attacks (mean ± S.E.M.), Test Compound-Treated Group: 60 min before clonidine 20 mg/kg ip, 30 min count
Procedure: The effect of a test compound on the aggressive behavior induced by intraperitoneal administration of clonidine was investigated. […] The experiment was performed by using several groups of male ddY mice (weighing 20 to 25 g, Japan SLC), each group consisting of two mice. The test compound was suspended in injectable distilled water (Otsuka Pharmaceutical Co., Ltd.) containing Tween 80 [polyoxyethylene (20) sorbitan monooleate]. Clonidine hydrochloride (Sigma Co.) was dissolved in physiological saline solution (Otsuka Pharmaceutical Co., Ltd.). The test compound suspension and the control suspension were orally administered to separate groups of the mice (0.1 ml per 10 g of body weight). Sixty minutes after the oral administration of the test compound, clonidine hydrochloride (20 mg/kg) was intraperitoneally injected. The number of biting attacks during 30 minutes after clonidine treatment was counted. The effect of the compound was evaluated by comparing the average number of biting attacks of the test compound-administered groups with that of control groups (Statistical comparison: Student's t-test).

ddY-strain male mice = test: Acute Toxicity Test (minimum lethal dose, oral); format: in vivo; conditions: seven days after administration
Procedure: Test compounds were orally administered to groups of ddY-strain male mice weighing 20±1 g, each group consisting of three mice. Seven days after the administration, minimum lethal dose (MLD) of each compound was determined by observing the mortality.

[2] = Mus musculus, 10 mg/kg, read-out: Number of the Attacks of Test Compound-Treated Group/Number of the Attacks of Control Group

SMILES | Number of the Biting Attacks (mean ± S.E.M.), Test Compound-Treated Group ([1]; 2.5 mg/kg) | Number of the Biting Attacks (mean ± S.E.M.), Test Compound-Treated Group ([1]; 10 mg/kg) | response vs control in vivo at 2.5 mg/kg ([1]; Mus musculus, read-out: Number of the Attacks of Test Compound-Treated Group/Number of the Attacks of Control Group) [%] | response vs control in vivo at 10 mg/kg [1, 2] [%] | MLD (minimum lethal dose) (ddY-strain male mice) [mg/kg]
CCn1c(=O)c2c(nc(/C=C/c3ccc(OC)c(C)c3C)n2C)n(CC)c1=O [Compound 82, (E)-1,3-Diethyl-8-(4-methoxy-2,3-dimethylstyryl)-7-methylxanthine] | 59.0 ± 13.31 | 61.8 ± 11.89 | 910 | 800 | > 300
CCn1c(=O)c2c(nc(/C=C/c3ccc(OC)c(Br)c3)n2C)n(CC)c1=O [Compound 114, (E)-8-(3-Bromo-4-methoxystyryl)-1,3-diethyl-7-methylxanthine] | – | 37.8 ± 8.66 | – | – | > 100
CCOc1ccc(/C=C/c2nc3c(c(=O)n(CC)c(=O)n3CC)n2C)cc1 [Compound 124, (E)-8-(4-Ethoxystyryl)-1,3-diethyl-7-methylxanthine] | 85.8 ± 12.41 | 50.5 ± 17.7 | – | – | > 300
CCCOc1ccc(/C=C/c2nc3c(c(=O)n(CC)c(=O)n3CC)n2C)cc1 [Compound 126, (E)-1,3-Diethyl-7-methyl-8-(4-propoxystyryl)xanthine] | – | 80.0 ± 13.93 | – | – | > 300
CCn1c(=O)c2c(nc(/C=C/c3cc(OC)cc(OC)c3)n2C)n(CC)c1=O [Compound 130, (E)-8-(3,5-Dimethoxystyryl)-1,3-diethyl-7-methyl-xanthine] | – | 52.2 ± 11.79 | – | 480 | > 300
CCCCOc1ccc(/C=C/c2nc3c(c(=O)n(CC)c(=O)n3CC)n2C)cc1 [Compound 148, (E)-8-(4-Butoxystyryl)-1,3-diethyl-7-methylxanthine] | – | 46.3 ± 9.40 | – | – | > 100
CCn1c(=O)c2c(nc(/C=C/c3ccc(F)cc3)n2C)n(CC)c1=O [Compound 150, (E)-1,3-Diethyl-8-(4-fluorostyryl)-7-methylxanthine] | – | 42.1 ± 10.18 | – | – | > 100
CCn1c(=O)c2c(nc(/C=C/c3ccc(C)cc3)n2C)n(CC)c1=O [Compound 152, (E)-1,3-Diethyl-7-methyl-8-(4-methylstyryl)xanthine] | – | 82.6 ± 23.07 | – | 670 | > 100
CCn1c(=O)c2c(nc(/C=C/c3cccc(Br)c3)n2C)n(CC)c1=O [Compound 162, (E)-8-(3-Bromostyryl)-1,3-diethyl-7-methylxanthine] | – | 17.9 ± 6.67 | – | 850 | > 100
CCn1c(=O)c2c(nc(/C=C/c3ccccc3F)n2C)n(CC)c1=O [Compound 168, (E)-1,3-Diethyl-8-(2-fluorostyryl)-7-methylxanthine] | – | 53.9 ± 8.59 | – | 710 | > 100
CCn1c(=O)c2c(nc(/C=C/c3ccc(OC)c(F)c3)n2C)n(CC)c1=O [Compound 173, (E)-1,3-Diethyl-8-(3-fluoro-4-methoxystyryl)-7-methylxanthine] | – | 46.8 ± 14.89 | – | 620 | > 100
CCn1c(=O)c2c(nc(/C=C/c3ccc(OC)c(C)c3)n2C)n(CC)c1=O [Compound 175, (E) -1,3-Diethyl-8-(4-methoxy-3-methylstyryl)-7-methylxanthine] | – | 49.1 ± 15.59 | – | 790 | > 100
